Laboratory results reported in patent publication US9522881B2, “Hydroxyindole carboxylic acid based inhibitors for oncogenic Src homology-2 domain containing protein tyrosine phosphatase-2 (SHP2)” (Indiana University Research and Technology Corporation, priority 2013, dated 2016).
“Also recorded” adds a separate entry of the source.

Assays:
SHP2 = SHP2 (Homo sapiens (Human), UniProt Q06124); test: SHP2-catalyzed hydrolysis of p-nitrophenyl phosphate (pNPP); format: biochemical
Protocol: Libraries 11a-d were screened at ˜5 μM for SHP2 inhibitors without further purification. The ability of the library components to inhibit the SHP2-catalyzed hydrolysis of p-nitrophenyl phosphate (pNPP) was evaluated at pH 7.0 and 25° C. More particularly, the phosphatase activity of SHP2 was assayed using p-nitrophenyl phosphate (pNPP) as a substrate at 25° C. in 50 mM 3,3-dimethylglutarate buffer, pH 7.0, containing 1 mM EDTA with an ionic strength of […] adjusted by NaCl. The libraries were screened in a 96-well format at 5 μM compound concentration. […] The nonenzymatic hydrolysis of pNPP was corrected by measuring the control without the addition of enzyme. The amount of product p-nitrophenol was determined from the absorbance at 405 nm detected by a Spectra MAX340 microplate spectrophotometer (Molecular Devices, Sunnyvale, Calif.) using a molar extinction coefficient of 18,000 M^−1 cm^−1. […] IC50 values for selected resynthesized and purified hits were calculated by fitting the absorbance at 405 nm versus inhibitor concentration to the following equation: AI/A0=IC50/(IC50+[I]) where AI is the absorbance at 405 nm of the sample in the presence of the inhibitor; A0 is the absorbance at 405 nm in the absence of inhibitor; and [I] is the concentration of the inhibitor.

PTPH1 = PTPH1 (Homo sapiens (Human), UniProt P26045); test: PTP selectivity panel, pNPP; format: biochemical, mammalian; settings: pNPP at Km
PTPH1, sequence (P26045 whole entry, species assumed): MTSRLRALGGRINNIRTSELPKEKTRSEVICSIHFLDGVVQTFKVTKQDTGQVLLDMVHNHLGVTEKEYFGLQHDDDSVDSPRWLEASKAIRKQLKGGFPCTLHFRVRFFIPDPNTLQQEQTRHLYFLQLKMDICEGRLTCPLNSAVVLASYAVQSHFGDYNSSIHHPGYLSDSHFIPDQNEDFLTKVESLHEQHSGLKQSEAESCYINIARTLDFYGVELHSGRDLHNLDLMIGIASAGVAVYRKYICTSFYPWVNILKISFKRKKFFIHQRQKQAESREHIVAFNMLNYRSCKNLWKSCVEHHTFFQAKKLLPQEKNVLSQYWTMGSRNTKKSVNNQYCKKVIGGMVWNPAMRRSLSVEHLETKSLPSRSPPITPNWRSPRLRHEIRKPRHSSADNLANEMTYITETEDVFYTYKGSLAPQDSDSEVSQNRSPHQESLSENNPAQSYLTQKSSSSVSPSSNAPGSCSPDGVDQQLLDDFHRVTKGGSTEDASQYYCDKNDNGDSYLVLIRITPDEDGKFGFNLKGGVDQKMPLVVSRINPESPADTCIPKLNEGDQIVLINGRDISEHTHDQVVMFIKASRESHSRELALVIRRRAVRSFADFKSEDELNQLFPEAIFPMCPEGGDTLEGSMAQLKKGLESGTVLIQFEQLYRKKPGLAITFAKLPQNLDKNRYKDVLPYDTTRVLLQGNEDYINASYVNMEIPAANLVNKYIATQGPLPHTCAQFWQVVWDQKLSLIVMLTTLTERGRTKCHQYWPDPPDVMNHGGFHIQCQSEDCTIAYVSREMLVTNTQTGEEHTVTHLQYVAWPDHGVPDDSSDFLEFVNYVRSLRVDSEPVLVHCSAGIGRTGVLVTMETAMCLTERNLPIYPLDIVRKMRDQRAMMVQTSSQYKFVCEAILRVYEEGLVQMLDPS

SHP1 = SHP1 (Homo sapiens (Human), UniProt P29350); test: PTP selectivity panel, pNPP; format: biochemical, mammalian
SHP1, sequence (P29350 whole entry): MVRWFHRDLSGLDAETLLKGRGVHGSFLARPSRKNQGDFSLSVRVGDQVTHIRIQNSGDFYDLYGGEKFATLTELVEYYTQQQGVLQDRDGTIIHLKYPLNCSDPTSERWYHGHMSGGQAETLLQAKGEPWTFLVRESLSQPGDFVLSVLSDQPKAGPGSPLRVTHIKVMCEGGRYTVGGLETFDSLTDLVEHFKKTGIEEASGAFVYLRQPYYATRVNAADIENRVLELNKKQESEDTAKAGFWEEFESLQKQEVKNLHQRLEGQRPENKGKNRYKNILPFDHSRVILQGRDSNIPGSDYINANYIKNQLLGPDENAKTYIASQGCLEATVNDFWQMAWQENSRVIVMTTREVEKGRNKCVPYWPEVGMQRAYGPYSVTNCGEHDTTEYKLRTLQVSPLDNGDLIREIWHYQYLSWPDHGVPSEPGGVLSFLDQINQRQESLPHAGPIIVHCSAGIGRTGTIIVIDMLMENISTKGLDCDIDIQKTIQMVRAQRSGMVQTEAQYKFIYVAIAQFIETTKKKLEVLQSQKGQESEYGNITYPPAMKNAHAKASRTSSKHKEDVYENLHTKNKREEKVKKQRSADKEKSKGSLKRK

PTP1B = PTP1B (Homo sapiens (Human), UniProt P18031); test: PTP selectivity panel, pNPP; format: biochemical, mammalian
PTP1B, sequence (P18031 whole entry, species assumed): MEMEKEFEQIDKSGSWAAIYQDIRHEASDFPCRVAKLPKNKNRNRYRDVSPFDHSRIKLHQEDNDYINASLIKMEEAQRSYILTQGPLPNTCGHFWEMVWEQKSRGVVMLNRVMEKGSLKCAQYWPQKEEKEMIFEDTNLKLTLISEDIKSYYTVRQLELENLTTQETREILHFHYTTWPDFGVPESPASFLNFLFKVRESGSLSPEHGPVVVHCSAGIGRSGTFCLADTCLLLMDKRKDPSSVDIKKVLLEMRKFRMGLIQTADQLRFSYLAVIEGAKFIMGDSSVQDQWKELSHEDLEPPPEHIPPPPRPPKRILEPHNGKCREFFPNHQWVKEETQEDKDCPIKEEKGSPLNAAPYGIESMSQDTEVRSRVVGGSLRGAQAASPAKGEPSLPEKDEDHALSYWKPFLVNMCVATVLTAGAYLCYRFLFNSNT

VHZ = VHZ (Homo sapiens (Human), UniProt Q9BVJ7); test: PTP selectivity panel, pNPP; format: biochemical, mammalian; settings: pNPP at Km
VHZ, sequence (Q9BVJ7 whole entry, species assumed): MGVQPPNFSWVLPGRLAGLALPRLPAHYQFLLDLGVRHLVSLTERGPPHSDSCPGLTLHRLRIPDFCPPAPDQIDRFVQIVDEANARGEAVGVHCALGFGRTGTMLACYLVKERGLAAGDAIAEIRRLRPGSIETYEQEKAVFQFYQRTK

PTPγ = PTPγ (Homo sapiens (Human), UniProt P23470); test: PTP selectivity panel, pNPP; format: biochemical, mammalian; settings: pNPP at Km
PTPμ = PTPμ (Homo sapiens (Human), UniProt P28827); test: PTP selectivity panel, pNPP; format: biochemical, mammalian; settings: pNPP at Km
PEZ = PEZ (Homo sapiens (Human), UniProt Q15678); test: PTP selectivity panel, pNPP; format: biochemical, mammalian; settings: pNPP at Km
UBLCP1 = UBLCP1 (Homo sapiens (Human), UniProt Q8WVY7); test: PTP selectivity panel, pNPP; format: biochemical, mammalian; settings: pNPP at Km
UBLCP1, sequence (Q8WVY7 whole entry, species assumed): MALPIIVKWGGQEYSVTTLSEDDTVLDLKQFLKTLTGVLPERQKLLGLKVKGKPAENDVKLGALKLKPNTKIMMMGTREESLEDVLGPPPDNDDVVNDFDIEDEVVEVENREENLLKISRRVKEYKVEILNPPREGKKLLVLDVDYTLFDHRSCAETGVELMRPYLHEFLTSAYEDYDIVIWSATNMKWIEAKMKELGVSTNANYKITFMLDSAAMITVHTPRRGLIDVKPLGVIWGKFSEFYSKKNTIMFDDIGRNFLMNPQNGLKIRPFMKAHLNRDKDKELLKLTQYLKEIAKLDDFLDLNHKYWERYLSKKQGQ

Laforin = Laforin (Homo sapiens (Human), UniProt O95278); test: PTP selectivity panel, pNPP; format: biochemical, mammalian; settings: pNPP at Km
Laforin, sequence (O95278 whole entry, species assumed): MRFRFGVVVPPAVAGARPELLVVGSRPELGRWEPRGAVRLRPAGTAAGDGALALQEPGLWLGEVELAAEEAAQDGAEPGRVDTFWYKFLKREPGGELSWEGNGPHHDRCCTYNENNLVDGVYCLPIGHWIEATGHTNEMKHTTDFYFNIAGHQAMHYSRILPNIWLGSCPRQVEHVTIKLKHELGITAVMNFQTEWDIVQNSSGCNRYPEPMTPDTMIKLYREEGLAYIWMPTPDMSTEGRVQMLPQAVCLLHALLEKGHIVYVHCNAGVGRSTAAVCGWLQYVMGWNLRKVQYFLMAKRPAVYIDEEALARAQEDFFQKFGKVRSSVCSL

PTPα = PTPα (Homo sapiens (Human), UniProt P18433); test: PTP selectivity panel, pNPP; format: biochemical, mammalian; settings: pNPP at Km
PTPα, sequence (P18433 whole entry, looked up): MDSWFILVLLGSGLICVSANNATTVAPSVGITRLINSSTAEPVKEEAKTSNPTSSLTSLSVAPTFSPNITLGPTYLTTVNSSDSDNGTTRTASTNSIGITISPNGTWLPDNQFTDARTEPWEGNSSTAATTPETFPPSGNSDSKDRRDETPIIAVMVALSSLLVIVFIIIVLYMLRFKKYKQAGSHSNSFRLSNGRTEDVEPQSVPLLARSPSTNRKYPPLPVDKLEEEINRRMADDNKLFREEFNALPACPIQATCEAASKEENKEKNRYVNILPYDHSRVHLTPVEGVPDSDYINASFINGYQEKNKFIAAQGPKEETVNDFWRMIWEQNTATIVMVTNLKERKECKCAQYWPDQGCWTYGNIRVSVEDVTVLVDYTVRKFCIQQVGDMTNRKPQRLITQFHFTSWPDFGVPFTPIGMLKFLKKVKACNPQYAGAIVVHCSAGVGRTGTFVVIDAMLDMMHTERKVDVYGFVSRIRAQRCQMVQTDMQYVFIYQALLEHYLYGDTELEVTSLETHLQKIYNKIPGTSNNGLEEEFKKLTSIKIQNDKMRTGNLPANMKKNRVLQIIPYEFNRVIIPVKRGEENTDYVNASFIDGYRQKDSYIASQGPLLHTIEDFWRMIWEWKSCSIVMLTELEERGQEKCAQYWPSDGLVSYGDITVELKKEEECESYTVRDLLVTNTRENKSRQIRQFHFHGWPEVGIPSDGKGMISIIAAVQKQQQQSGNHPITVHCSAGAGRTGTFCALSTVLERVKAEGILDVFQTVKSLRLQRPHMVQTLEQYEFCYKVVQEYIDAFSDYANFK

[1] = tested on: EGF-induced Erk1/2 phosphorylation; test: EGF-induced Erk1/2 phosphorylation in H1975 cells (immunoblot); format: cell-based, human
Protocol: (§1) For biochemical studies, H1975 cells were serum-starved overnight followed by treatment with vehicle or compound 11a-1 for 3 hours, and then either left unstimulated or stimulated with 5 ng/ml EGF (Sigma, St. Louis, Mo.) for 60 minutes. Lysates were then resolved by SDS-PAGE and the protein phosphorylation levels were detected by immunoblot analysis. Specifically, cells were lysed in lysis buffer (1.0% Nonidet P-40, 50 mM Tris-HCl (pH 7.4), 150 mM NaCl, 5 mM EDTA, 2 mM NaVO3, 10 mM NaF) plus a protease inhibitor mixture available from Roche (Basel, Switzerland) and centrifuged at 10,000 rpm for 5 minutes at 4° C. Supernatants were collected and protein concentration was determined using the BCA protein assay (ThermoFisher Scientific, Rockford, Ill.). Equal amount of protein extracts were mixed with gel loading buffer and separated on SDS-PAGE. After electrophoresis, the proteins were transferred onto nitrocellulose membranes and nonspecific binding was blocked with 5% nonfat dry milk in Tris-buffered saline containing 0.1% Tween-20 (TBS-T). Membranes were then probed with various antibodies overnight at 4° C. on a rocker. After incubation, membranes were washed with TBS-T and incubated with appropriate horseradish peroxidase (HRP)-conjugated secondary antibodies for 1 hour at room temperature. Finally, the proteins on the membranes were detected using SuperSignal West Dura Luminol/Enhancer solution (ThermoFisher Scientific, Rockford, Ill.) and membranes were analyzed using Bio-Rad ChemiDoc XRS Imaging System.

Paxillin (pY118) = Paxillin (pY118) phosphorylation in H1975 cells (immunoblot); format: cell-based, human
Protocol: as §1

[2] = tested on: PMA-induced Erk1/2 phosphorylation; test: PMA-induced Erk1/2 phosphorylation; format: cell-based
Protocol: To provide further evidence that the observed cellular effect of compound 11a-1 is SHP2 dependent, the effect of compound 11a-1 on PMA (phorbol 12-myristate 13-acetate)-induced Erk1/2 activation, which is SHP2 independent and instead depends on the activation of protein kinase C and Raf in a Ras-independent manner, was evaluated. Thus, SHP2 inhibitors would not be expected to affect PMA-induced Erk1/2 phosphorylation. Indeed, compound 11a-1 had no effect on PMA-induced Erk1/2 phosphorylation (FIG. 6D).

[3] = tested on: Erk1/2 and Akt phosphorylation; test: Erk1/2 and Akt phosphorylation in SKBR3 cells recovered from Matrigel (immunoblot); format: cell-based; settings: 1 μM to 10 μM, 4 days in Matrigel
Protocol: Approximately 300,000 SKBR3 cells were seeded into 150 μl of growth factor reduced Matrigel (Corning, Corning, N.Y.) in 35 mm dishes. To 3 dishes for each condition, 2 mL of media containing either 10 μl vehicle (DMSO) or compound 11a-1 at the indicated concentration was then added. Every 24 hours, the cells were imaged with a NIKON SMZ1500 stereomicroscoppe. The cross-sectional area of individual colonies from each image were measured using Adobe Photoshop software. After 4 days, the cells were recovered from the Matrigel and lysed in PLC buffer containing protease inhibitor cocktail (Cat. No. P8340; Sigma-Aldrich, St. Louis, Mo.). Lysates were then resolved by SDS-PAGE and relative levels of the indicated proteins were detected by immunoblot analysis.

SHP2, sequence (Q06124 whole entry, looked up): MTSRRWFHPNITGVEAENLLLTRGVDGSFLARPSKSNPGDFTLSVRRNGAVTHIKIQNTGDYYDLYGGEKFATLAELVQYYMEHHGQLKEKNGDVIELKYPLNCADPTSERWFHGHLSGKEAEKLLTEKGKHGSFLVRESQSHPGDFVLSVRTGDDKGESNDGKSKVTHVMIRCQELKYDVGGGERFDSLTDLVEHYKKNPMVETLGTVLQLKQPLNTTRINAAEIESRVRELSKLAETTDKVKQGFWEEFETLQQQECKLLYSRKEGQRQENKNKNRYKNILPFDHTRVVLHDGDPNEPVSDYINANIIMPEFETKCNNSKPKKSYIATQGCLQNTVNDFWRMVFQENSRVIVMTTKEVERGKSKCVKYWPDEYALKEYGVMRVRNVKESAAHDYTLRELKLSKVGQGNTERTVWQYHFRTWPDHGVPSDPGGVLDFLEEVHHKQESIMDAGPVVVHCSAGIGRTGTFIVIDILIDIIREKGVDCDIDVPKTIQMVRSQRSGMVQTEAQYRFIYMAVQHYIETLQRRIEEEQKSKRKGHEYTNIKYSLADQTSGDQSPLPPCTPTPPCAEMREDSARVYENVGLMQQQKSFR

Cn1c(-c2cccc(NC(=O)C(=O)Nc3ccc(-c4ccsc4)cc3)c2)c(I)c2cc(C(=O)O)c(O)cc21 [11a-1, 6-hydroxy-3-iodo-1-methyl-2-(3-(2-oxo-2-((4-(thiophen-3-yl)phenyl)amino)acetamido)phenyl)-1H-indole-5-carboxylic acid]
selectivity for SHP2 over a panel of 20 mammalian PTPs (SHP2): over 5 fold | IC50 (SHP2; pNPP substrate, pH 7.0, 25° C.): 200 ± 20 nM | IC50 (PTPH1): 1070 ± 70 nM | preference for SHP2 over SHP1 (SHP1): 7 fold | IC50 (SHP1; pNPP at Km): 1440 ± 40 nM | preference for SHP2 over PTP1B (PTP1B): 11 fold | IC50 (VHZ): 2300 ± 200 nM | IC50 (PTPγ): 2400 ± 400 nM | IC50 (PTPμ): 3300 ± 200 nM | IC50 (PEZ): 5300 ± 200 nM | IC50 (UBLCP1): 9700 ± 500 nM | IC50 (Laforin): 12200 ± 2000 nM | IC50 (PTPα): > 100000 nM | reduction of Erk1/2 phosphorylation ([1]; H1975 cells, 2 μM): 40% | effect on EGF-induced Erk1/2 phosphorylation ([1]; H1975 cells, dose-dependent): effectively reduced; also recorded: decreased | ability to inhibit EGF-mediated Erk1/2 activation in SHP2 knocked down cells ([1]; SHP2 knocked down with siRNA): blunted | augmentation of Paxillin phosphorylation (Paxillin (pY118); 2 μM): 30% | effect on EGF induced Paxillin (Y118) phosphorylation (Paxillin (pY118); dose-dependent): dose-dependently increased | effect on PMA-induced Erk1/2 phosphorylation [2]: no effect | Erk1/2 and Akt phosphorylation in SKBR3 cells [3]: concordantly inhibited
